{"source": "paper PMC10820527", "about": "“Synthesis, Characterization, and Investigation of Anti-Inflammatory and Cytotoxic Activities of Novel Thiourea Derivatives of Naproxen” (Pharmaceutics, 2023)", "assay_type_in_all_cases": "cell-based, human", "key": {"[1]": {"tested_on": "antiapoptotic protein Bcl-2", "test": "Assessment of apoptosis: Bcl-2 expression (flow cytometry)", "conditions": "HeLa cells, 24 h, IC50 concentration, p > 0.05", "method": "(§1) The aim of this study was to determine the expression of proteins that play a key role in apoptosis. The level of expression of the proapoptotic protein Bax, antiapoptotic protein Bcl-2, and the percentage of cells containing active caspase-3 was evaluated. […] Additionally, HeLa cells were fixed, permeabilized, and rinsed with ice-cold PBS (Fixation and Permeabilization Kit, eBioscience, San Diego, CA, USA). The cells were treated for 15 min at room temperature with a 1:1000 Bcl-2 fluorescein isothiocyanate (FITC) primary antibody (mhbcl01, Life Technologies, Carlsbad, CA, USA) to stain them. For further labeling, permeabilized HeLa cells were incubated with primary antibodies for active-Bax (N20, sc-493; Santa Cruz Biotech Inc., Dallas, TX, USA) and cleaved caspase-3 (#9661, Cell signaling Technology, Danvers, MA, USA) at a ratio of 1:1000 for 30 min. […] With the FC500 (Beckman Coulter), fluorescence of at least 15,000 events/samples had been measured. Negative control antibodies that matched the isotype were used to normalize the fluorescence intensity. The degree of expression of these proteins was indicated by the mean fluorescence intensities for Bax and Bcl-2 (MFIs), which were computed as the ratio of raw mean channel fluorescence to isotype control levels, respectively. […]"}, "HeLa cells": {"tested_on": "HeLa cells", "test": "Annexin V/PI flow cytometry (type of cell death)", "method": "(§2) The type of cell death induced by compounds 3 and 8 was determined by the annexin V–fluorescein isothiocyanate (FITC)/propidium iodide (PI) Apoptosis Kit (BD Biosciences, Franklin Lakes, NJ, USA). […] Furthermore, tested HeLa cells were trypsinized, washed in PBS, centrifuged, and resuspended in 100 μL of ice-cold binding buffer. The tested cells were then stained with both 10 μL of Annexin V-FITC and 20 μL of […], incubated for 15 min in the dark at room temperature, and 400 μL of binding buffer was added to each tube. The obtained samples were measured with a flow cytometer Cytomics FC500 (Beckman Coulter, Brea, CA, USA). In addition, the obtained data were analyzed using FlowJo V10 Software. Measurements were presented as the representative density plots of Annexin V-FITC and PI staining and the average values of three independent experiments."}, "[2]": {"test": "Annexin V/PI flow cytometry (type of cell death)", "conditions": "human; HeLa cells, 24 h, IC50 concentration; representative plot; read-out: viable cells (Q4, lower left quadrant)", "method": "as §2"}, "active caspase-3": {"tested_on": "active caspase-3", "test": "Assessment of apoptosis: cells containing active caspase-3 (flow cytometry)", "conditions": "HeLa cells, 24 h, IC50 concentration, p < 0.05", "method": "as §1"}, "proapoptotic protein Bax": {"tested_on": "proapoptotic protein Bax", "test": "Assessment of apoptosis: active Bax expression (flow cytometry)", "conditions": "HeLa cells, 24 h, IC50 concentration, p > 0.05", "method": "as §1"}}, "data": [{"smiles": "COc1ccc2cc([C@H](C)C(=O)NC(=S)Nc3ccccc3)ccc2c1", "note": "[Compound 8, (S)-2-(6-methoxynaphthalen-2-yl)-N-(phenylcarbamothioyl)propanamide]", "values": [{"measurement": "Amount of the antiapoptotic protein Bcl-2 (in words)", "setting": "[1]", "value": "insignificantly changed"}, {"measurement": "Type of HeLa cell death induced (in words)", "setting": "HeLa cells; 24 h of treatment, p < 0.05", "value": "induced apoptosis"}, {"measurement": "late apoptotic cells (Q2, upper right quadrant)", "setting": "HeLa cells; HeLa cells, 24 h, IC50 concentration, Annexin V-FITC/PI", "value": "1–3%"}, {"measurement": "viability at 24 h", "setting": "[2]", "value": 49.2, "unit": "%"}, {"measurement": "Percentage of cells containing active caspase-3 (in words)", "setting": "active caspase-3", "value": "increased compared to the untreated cells"}, {"measurement": "Amount of proapoptotic Bax (in words)", "setting": "proapoptotic protein Bax", "value": "insignificantly changed"}]}]}
